Common to all, as to type: cell-based
The test system of one assay is GluN1/2AB receptors. Put plainly: Whole-cell patch-clamp, HEK293T cells expressing recombinant GluN1/2AB. The note with it: 100 μM CNS4 applied 4 s before and with 100 μM glutamate + 100 μM glycine; agonist alone −546 ± 32.34 pA; n = 8(4), p = .023. Here is the method:
(§1) Whole‐cell patch‐clamp electrophysiology studies were carried out in HEK‐293T cells expressing recombinant NMDA receptors that lack native functional NMDA receptors.[29], [30], [31] An equal quantity of (1 μg) cDNA for GluN1a, GluN2 subunits were co‐transfected 24‐48 h before patch‐clamp electrophysiology assay. […] Cells were carefully washed before performing experiments and were used for the electrophysiology experiments after 24 to 48 h incubation at 37°C with 5%CO2. The whole‐cell patch‐clamp electrophysiology assay was performed using semi‐automated patch‐clamp equipment, Port‐a‐Patch (Nanion Technologies GmbH). Following are the constituents of various solutions used for patch‐clamp electrophysiology: internal solution ([mM] NaCl 10, EGTA 20, CsF 110, HEPES 10), Mg‐free external (recording) solution ([mM] NaCl 140, KCl 4, CaCl2 2, HEPES 10, D‐GlucoseMonohydrate 5), and Mg‐free seal enhancer solution ([mM] NaCl 80, KCl 3, CaCl2 35, HEPES 10). Nanion NPC chips with […] resistance were used for the HEK‐293T cell recordings.
(§2) FIGURE 1 CNS4 sensitizes ambient concentration of agonists in GluN2 subunit dependent manner. […] Statistical significance was calculated from the Wilcoxon matched‐pairs signed rank test, except the comparison between 1/2A & 1/2AB CNS4 with no agonist data, which was done by unpaired t‐test. […]
For orientation: In patch-clamp work, channel activity is measured electrically.

In another assay the target is T1, GluN1/2A receptors (UniProt P35439+Q12879).
T1 construct: expressed in transfected cells; host or cells: HEK-293T
T1 sequence (Q12879 23-1464, other chains not shown): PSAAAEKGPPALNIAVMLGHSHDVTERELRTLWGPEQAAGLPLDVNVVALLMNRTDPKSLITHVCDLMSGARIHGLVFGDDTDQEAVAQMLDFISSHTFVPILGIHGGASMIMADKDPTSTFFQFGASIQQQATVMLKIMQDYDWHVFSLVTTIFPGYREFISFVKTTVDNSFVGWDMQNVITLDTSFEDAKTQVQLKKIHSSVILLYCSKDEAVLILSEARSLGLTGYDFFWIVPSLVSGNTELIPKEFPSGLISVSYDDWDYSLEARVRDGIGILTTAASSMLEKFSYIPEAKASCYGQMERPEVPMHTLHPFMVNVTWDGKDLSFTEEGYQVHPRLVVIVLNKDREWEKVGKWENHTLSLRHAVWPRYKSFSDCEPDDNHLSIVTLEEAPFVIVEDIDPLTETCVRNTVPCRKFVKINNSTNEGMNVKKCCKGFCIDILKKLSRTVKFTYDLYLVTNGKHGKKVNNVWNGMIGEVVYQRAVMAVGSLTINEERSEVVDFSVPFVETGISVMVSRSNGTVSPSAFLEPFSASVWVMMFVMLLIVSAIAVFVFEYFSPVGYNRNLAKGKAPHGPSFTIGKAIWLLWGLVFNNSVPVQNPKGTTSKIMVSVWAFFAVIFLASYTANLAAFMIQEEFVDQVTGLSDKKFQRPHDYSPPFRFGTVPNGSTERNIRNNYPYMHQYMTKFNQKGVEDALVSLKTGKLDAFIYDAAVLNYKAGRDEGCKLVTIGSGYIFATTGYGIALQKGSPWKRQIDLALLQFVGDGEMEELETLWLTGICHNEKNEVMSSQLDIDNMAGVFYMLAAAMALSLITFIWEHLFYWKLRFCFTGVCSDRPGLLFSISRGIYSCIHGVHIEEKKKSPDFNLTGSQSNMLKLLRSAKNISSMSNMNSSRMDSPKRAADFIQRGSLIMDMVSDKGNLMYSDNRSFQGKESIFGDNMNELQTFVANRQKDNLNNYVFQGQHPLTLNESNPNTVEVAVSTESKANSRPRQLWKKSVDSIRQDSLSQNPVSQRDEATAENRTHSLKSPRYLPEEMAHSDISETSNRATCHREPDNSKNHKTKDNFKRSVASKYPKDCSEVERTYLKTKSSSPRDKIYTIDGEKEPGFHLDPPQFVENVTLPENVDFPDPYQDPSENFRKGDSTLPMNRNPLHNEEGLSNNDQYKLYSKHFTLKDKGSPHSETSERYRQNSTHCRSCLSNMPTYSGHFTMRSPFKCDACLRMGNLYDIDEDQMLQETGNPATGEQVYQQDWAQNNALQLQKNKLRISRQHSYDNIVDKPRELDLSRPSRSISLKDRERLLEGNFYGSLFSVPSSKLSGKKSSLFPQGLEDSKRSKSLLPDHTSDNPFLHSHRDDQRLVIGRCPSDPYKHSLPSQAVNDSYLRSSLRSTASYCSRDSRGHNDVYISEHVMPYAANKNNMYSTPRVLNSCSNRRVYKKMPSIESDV
Put plainly: Whole-cell patch-clamp, HEK293T cells expressing recombinant GluN1/2A. The following applies: 100 μM CNS4 applied 4 s before and with 100 μM glutamate + 100 μM glycine; agonist alone −323.5 ± 82 pA; n = 4(3), p = .12. As for the experimental part:
as §1, §2

For assay [1], the target named is T2, E781A_1/2A mutant receptor (UniProt P35439+Q12879, E781A).
T2 construct: expressed in transfected cells; host or cells: Xenopus oocytes (cRNA injection)
T2 sequence (Q12879 23-1464, other chains not shown): as above
The assay can be described thus: TEVC glutamate dose-response, GluN1 E781A mutant with wild type GluN2A. On the set-up: Glutamate efficacy: unit not given here. From the text: NMDA receptor constructs: cDNA encoding the NMDA receptor1a subunit (GluN1a) was obtained from Dr. Nakanishi (Kyoto, Japan). cDNA encoding the GluN2B (pci_sepGluN2B), originally developed in the Malinow lab,[33] was purchased from Addgene (cat# 23998), Cambridge, MA. cDNA encoding the GluN2C and GluN2D were purchased from GenScript, New Jersey, USA. Mutated GluN1, 2A and 2B cDNA constructs capable of assembling as GluN1/2A/2B triheteromeric (1/2AB) receptors[34] were obtained from Dr. Paoletti (Laboratoire de Neurobiologie, CNRS). These constructs have been previously tested for 1/2AB receptor activity of GluN1/2A receptor‐selective potentiators.[35] […] Plasmids were linearized with NotI (GluN1a and all five GluN1 mutants) or Avrll (GluN2B), or BstB1 (GluN2C and GluN2D) and transcribed in vitro with T7 (GluN1a, GluN1/2A, GluN2B, GluN2C & GluN2D), and SP6 (GluN1 mutants) RNA polymerase using the mMessage mMachine transcription kits (Invitrogen by Thermo Fisher Scientific).
Electrophysiological responses were measured using a standard two‐microelectrode voltage‐clamp workstation (Warner Instruments model OC‐725C) designed to provide a fast clamp of large cells. The recording buffer contained 116 mM NaCl, 2 mM KCl, 0.3 mM BaCl2, and 5 mM HEPES, pH 7.4. Response magnitude was determined in Xenopus oocytes expressing different NMDA receptor subunits (GluN1/2A, 1/2B, 1/2C, 1/2D, and 1/2A/2B) by the steady plateau response elicited by bath application of different agonist concentrations. […] All data points were obtained from the steady state currents unless stated otherwise. Dose–response relationships were fit to an appropriate curve‐fitting equation using GraphPad Prism‐7. Non‐linear regression was used to calculate EC50, IC50, and fold change or percentage maximal response. Curves were fit using the following equations as performed in the previous studies, [37]: Y=100/1+10^LogEC50−XorY=Bottom+Top−Bottom/1+10^LogEC50−X . Statistical significance was determined at the overall alpha level 0.05, using appropriate statistical methods as described in all figure captions. […]

Structures are written as SMILES.

In the case of `O=C(NC(=S)N1CCCCC1c1cccnc1)c1ccc(F)cc1` (centres unmarked) [CNS4], the Peak current amplitude entry in the assay on GluN1/2AB receptors was “–380.7 ± 36.61 pA”; on GluN1/2A receptors it was −469.3 ± 152 pA. Moreover, the “Glutamate efficacy, E781A mutant compared to wild type 1/2A” value in assay [1] (absence of glycine, presence of CNS4, 100 μM glutamate) is listed as ~ 34 fold. In addition, the “100 μM glutamate induced relative current amplitude (glutamate efficacy)” value in assay [1] (absence of glycine, presence of CNS4, n = 6 (3), p = .001 vs wild type) came out at 1.39 ± 0.29 fold. Moreover, in assay [1] (in the presence of 30 μM glycine and 30 μM CNS4, n = 5 (4), p = .11 vs wild type), the Glutamate efficacy was 118.5 ± 40.87.

The values are drawn from publication PMC10245146, “CNS4 causes subtype‐specific changes in agonist efficacy and reversal potential of permeant cations in NMDA receptors” (Pharmacology Research & Perspectives, 2023).
